# Calls of active or inactive are those of the source. No rule for the calls is given here.
# Molecular target: Hexokinase-1 (Homo sapiens) (UniProt P19367)
# Assay: hexokinase 1 inhibition, dose response, selectivity assay for HKDC1 inhibitor project, biochemical (AID 504763)
# Details: HK1 enzyme selectivity assay
# Sequence of Hexokinase-1 (Homo sapiens) (P19367 whole entry, looked up): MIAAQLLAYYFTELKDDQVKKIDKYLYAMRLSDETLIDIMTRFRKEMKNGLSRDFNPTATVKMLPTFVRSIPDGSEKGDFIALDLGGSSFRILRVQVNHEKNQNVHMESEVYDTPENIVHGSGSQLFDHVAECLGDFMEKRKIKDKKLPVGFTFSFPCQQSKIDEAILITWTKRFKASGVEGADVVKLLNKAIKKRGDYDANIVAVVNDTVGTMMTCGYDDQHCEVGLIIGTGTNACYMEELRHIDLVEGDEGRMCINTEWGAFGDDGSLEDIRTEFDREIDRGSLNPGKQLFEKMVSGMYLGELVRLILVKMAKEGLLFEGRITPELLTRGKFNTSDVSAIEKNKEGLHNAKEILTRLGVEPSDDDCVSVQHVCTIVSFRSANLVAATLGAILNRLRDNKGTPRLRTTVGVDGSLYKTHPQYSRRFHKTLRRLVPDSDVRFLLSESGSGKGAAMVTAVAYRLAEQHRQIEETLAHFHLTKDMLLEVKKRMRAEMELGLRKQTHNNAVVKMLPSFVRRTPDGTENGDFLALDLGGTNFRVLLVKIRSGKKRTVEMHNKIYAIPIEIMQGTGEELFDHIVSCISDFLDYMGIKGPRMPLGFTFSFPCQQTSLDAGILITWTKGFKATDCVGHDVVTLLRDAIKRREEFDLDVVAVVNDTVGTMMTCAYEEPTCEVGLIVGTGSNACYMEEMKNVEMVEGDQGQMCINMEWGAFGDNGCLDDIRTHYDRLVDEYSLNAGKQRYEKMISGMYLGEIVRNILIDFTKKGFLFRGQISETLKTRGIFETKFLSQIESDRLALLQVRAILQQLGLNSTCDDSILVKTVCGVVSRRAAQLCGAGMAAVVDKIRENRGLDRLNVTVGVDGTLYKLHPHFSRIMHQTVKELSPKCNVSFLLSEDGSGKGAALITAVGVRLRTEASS
row,SMILES,IC50
1,COCc1cc(C2C(C(=O)c3ccco3)=C(O)C(=O)N2CCOCCO)ccc1O (stereo not given),> 80 µM (inactive)
2,Cc1nc2c(O)c3c(c(O)c2nc1C)C1C=CC3CC1,2.08 µM
3,CC1COCC(C)N1C1=C(Cl)C(=O)c2ccccc2C1=O (stereo not given),> 80 µM (inactive)
4,Cc1cccc(C)c1Nc1nnc(SCc2cn3cccc(C)c3n2)s1,> 80 µM (inactive)
5,Cc1cccc2c(N=NC(=O)c3ccc(NS(=O)(=O)c4cccs4)cc3)c(O)[nH]c12,inactive
6,Cc1ccc(NC2c3ncccc3C(=O)N2c2ccccc2C)cc1C (stereo not given),> 80 µM (inactive)
7,CCCc1nc2c(c(=O)c3ccccc3n2C)c(=O)n1-c1ccc(F)cc1,6.47 µM
8,N#C/C(=C(/O)CCl)c1nc2c(s1)CCc1ccccc1-2,inactive
9,O=C1C(Cl)=C(NCCc2ccccc2)C(=O)c2ccccc21,18.5 µM
10,C=CCn1c(SCC(=O)Nc2sc3c(c2C#N)CCC(C)C3)nc2cc(C(=O)O)ccc2c1=O (stereo not given),> 80 µM (inactive)
11,COCC(=O)OC1CCn2c1nc1c2C(=O)C(C)=C(NC(C)=O)C1=O (stereo not given),2.15 µM

# Second part, the molecule after the results:
row,IC50,SMILES
1,> 80 µM (inactive),Oc1ccc(/C=N/Nc2ncc(Br)cn2)c(O)c1
2,5.54 µM,O=C(NCCc1ccccc1)c1cnn2c(C(F)F)cc(C3CC3)nc12
3,inactive,CC(NC1=CC(=O)c2cccnc2C1=O)C(O)c1ccccc1 (stereo not given)
4,18 µM,COc1cc(/C=C(\C#N)c2nc3ccc(C)cc3[nH]2)cc([N+](=O)[O-])c1O
5,> 80 µM (inactive),COc1ccc(CN2C(=O)c3cccnc3C2O)cc1 (stereo not given)
6,> 80 µM (inactive),COC1(NS(=O)(=O)c2ccc(Br)cc2)C(C)=CC(=O)C=C1C
7,> 80 µM (inactive),O=C(CNC(=O)/C=C/c1ccco1)N=Nc1c(O)[nH]c2ccccc12
8,> 80 µM (inactive),Cc1ccc(N=Cc2cc(Cc3ccccc3Cl)cc([N+](=O)[O-])c2O)c(O)c1
9,> 80 µM (inactive),O=[N+]([O-])c1ccc(NN=Cc2ccc(O)cc2O)nc1

# From PubChem BioAssay AID504763 (Sanford-Burnham Center for Chemical Genomics, 2011)
